Results published in ChEMBL document CHEMBL3044672, “N9- and N7-(Chloromethyl Phenymethyl)Chloropurine Derivatives from , '-Dichloroxylenes: Synthesis and Anticancer Activity” (2005).

How the values were obtained:
Type in all cases: functional
U-251 = assay: Cytotoxicity against Homo sapiens (human) U251 cells after 48 hr by sulforhodamine B assay; conditions: U-251, 48 h
Hs-578T = assay: Cytotoxicity against Homo sapiens (human) Hs 578T cells after 48 hr by sulforhodamine B assay
RPMI-8226 = assay: Cytotoxicity against Homo sapiens (human) RPMI8226 cells after 48 hr by sulforhodamine B assay; conditions: RPMI-8226, 48 h
M14 = assay: Cytotoxicity against Homo sapiens (human) M14 cells after 48 hr by sulforhodamine B assay; conditions: M14, 48 h
SN12C = assay: Cytotoxicity against Homo sapiens (human) SN12C cells after 48 hr by sulforhodamine B assay
T47D = assay: Cytotoxicity against Homo sapiens (human) T47D cells after 48 hr by sulforhodamine B assay
HT-29 = assay: Cytotoxicity against Homo sapiens (human) HT-29 cells after 48 hr by sulforhodamine B assay; conditions: HT-29, 48 h
A498 = assay: Cytotoxicity against Homo sapiens (human) A498 cells after 48 hr by sulforhodamine B assay; conditions: A498, 48 h
A549 = assay: Cytotoxicity against Homo sapiens (human) A549 cells after 48 hr by sulforhodamine B assay; conditions: A549, 48 h
PC-3 = assay: Cytotoxicity against Homo sapiens (human) PC3 cells after 48 hr by sulforhodamine B assay; conditions: PC-3, 48 h
OVCAR-4 = assay: Cytotoxicity against Homo sapiens (human) OVCAR4 cells after 48 hr by sulforhodamine B assay; conditions: OVCAR-4, 48 h
NCI-H460 [1] = assay: Cytotoxicity against Homo sapiens (human) NCI-H460 cells after 48 hr by sulforhodamine B assay; conditions: NCI-H460, 48 h
MCF7 [2] = assay: Cytotoxicity against Homo sapiens (human) MCF7 cells after 48 hr by sulforhodamine B assay; conditions: MCF7, 48 h
SK-MEL-5 = assay: Cytotoxicity against Homo sapiens (human) SK-MEL-5 cells after 48 hr by sulforhodamine B assay; conditions: SK-MEL-5, 48 h
UACC-257 = assay: Cytotoxicity against Homo sapiens (human) UACC257 cells after 48 hr by sulforhodamine B assay; conditions: UACC-257, 48 h
UO-31 = assay: Cytotoxicity against Homo sapiens (human) UO31 cells after 48 hr by sulforhodamine B assay; conditions: UO-31, 48 h
MDA-MB-435 = assay: Cytotoxicity against Homo sapiens (human) MDA-MB-435 cells after 48 hr by sulforhodamine B assay; conditions: MDA-MB-435, 48 h
MCF7 [3] = assay: Cytotoxicity against Homo sapiens (human) MCF7 cells assessed as cell growth at 10^-4 M after 48 hr by Alamar blue assay; conditions: MCF7, 48 h, read-out: Activity
KM12 = assay: Cytotoxicity against Homo sapiens (human) KM12 cells after 48 hr by sulforhodamine B assay; conditions: KM12, 48 h
HCC 2998 = assay: Cytotoxicity against Homo sapiens (human) HCC2998 cells after 48 hr by sulforhodamine B assay; conditions: HCC 2998, 48 h
LOX IMVI = assay: Cytotoxicity against Homo sapiens (human) LOXIMVI cells after 48 hr by sulforhodamine B assay
HOP-92 = assay: Cytotoxicity against Homo sapiens (human) HOP92 cells after 48 hr by sulforhodamine B assay; conditions: HOP-92, 48 h
K562 = assay: Cytotoxicity against Homo sapiens (human) K562 cells after 48 hr by sulforhodamine B assay; conditions: K562, 48 h
IGROV-1 = assay: Cytotoxicity against Homo sapiens (human) IGROV1 cells after 48 hr by sulforhodamine B assay; conditions: IGROV-1, 48 h
TK-10 = assay: Cytotoxicity against Homo sapiens (human) TK10 cells after 48 hr by sulforhodamine B assay; conditions: TK-10, 48 h
HCT-15 = assay: Cytotoxicity against Homo sapiens (human) HCT15 cells after 48 hr by sulforhodamine B assay; conditions: HCT-15, 48 h
NCI-H226 = assay: Cytotoxicity against Homo sapiens (human) NCI-H226 cells after 48 hr by sulforhodamine B assay; conditions: NCI-H226, 48 h
DU-145 = assay: Cytotoxicity against Homo sapiens (human) DU145 cells after 48 hr by sulforhodamine B assay; conditions: DU-145, 48 h
SK-MEL-28 = assay: Cytotoxicity against Homo sapiens (human) SK-MEL-28 cells after 48 hr by sulforhodamine B assay; conditions: SK-MEL-28, 48 h
NCI-H460 [4] = assay: Cytotoxicity against Homo sapiens (human) NCI-H460 cells assessed as cell growth at 10^-4 M after 48 hr by Alamar blue assay; conditions: NCI-H460, 48 h, read-out: Activity
NCI-H23 = assay: Cytotoxicity against Homo sapiens (human) NCI-H23 cells after 48 hr by sulforhodamine B assay; conditions: NCI-H23, 48 h
[5] = Cytotoxicity against Homo sapiens (human) NCI-ADR-RES cells after 48 hr by sulforhodamine B assay
[6] = read-out: LC50 (the source's name)

Nc1nc(Cl)c2ncn(Cc3cccc(CCl)c3)c2n1
GI50 (U-251): 1.82 µM | LC50 (concentration killing 50% of cells) (U-251): 9.33 µM | TGI (U-251): 4.07 µM | GI50 (Hs-578T): 11.5 µM | LC50 (Hs-578T): > 100 µM | TGI (Hs-578T): 60.2 µM | GI50 (RPMI-8226): 2.39 µM | TGI (RPMI-8226): 11.8 µM | CC50 (RPMI-8226; [6]): > 100 µM | GI50 (M14): 3.63 µM | LC50 (M14): 41.7 µM | TGI (M14): 11.7 µM | GI50 (SN12C): 4.46 µM | LC50 (50% lethal concentration) (SN12C): 39.8 µM | TGI (SN12C): 15.5 µM | GI50 (T47D): 6.02 µM | LC50 (T47D): > 100 µM | TGI (T47D): 37.1 µM | GI50 (HT-29): 2.51 µM | TGI (HT-29): 9.77 µM | CC50 (HT-29; [6]): 64.6 µM | GI50 (A498): 25.1 µM | LC50 (lethal concentration, 50% cell kill) (A498): > 100 µM | TGI (A498): 51.3 µM | GI50 (A549): 12.3 µM | TGI (A549): 27.5 µM | CC50 (A549; [6]): 63.1 µM | GI50 (PC-3): 9.77 µM | LC50 (concentration causing 50% cell kill) (PC-3): 63.1 µM | TGI (PC-3): 25.1 µM | GI50 (OVCAR-4): 1.95 µM | LC50 (concentration killing 50% of cells) (OVCAR-4): 9.54 µM | TGI (OVCAR-4): 4.26 µM | GI50 (NCI-H460 [1]): 4.26 µM | TGI (NCI-H460 [1]): 15.8 µM | CC50 (NCI-H460 [1]; [6]): 47.9 µM | GI50 (MCF7 [2]): 2.39 µM | LC50 (concentration killing 50% of cells) (MCF7 [2]): 53.7 µM | TGI (MCF7 [2]): 9.55 µM | GI50 (SK-MEL-5): 11 µM | LC50 (SK-MEL-5): 51.3 µM | TGI (SK-MEL-5): 23.4 µM | GI50 (UACC-257): 5.75 µM | LC50 (concentration killing 50% of cells) (UACC-257): 49 µM | TGI (UACC-257): 19.5 µM | GI50 (UO-31): 13.5 µM | LC50 (concentration causing 50% net cell kill) (UO-31): 77.6 µM | TGI (UO-31): 32.4 µM | GI50 (MDA-MB-435): 3.81 µM | LC50 (MDA-MB-435): 85.1 µM | TGI (MDA-MB-435): 22.4 µM | growth at 100 µM (MCF7 [3]): 0% | GI50 (KM12): 3.31 µM | TGI (KM12): 13.2 µM | CC50 (KM12; [6]): 37.1 µM | GI50 (HCC 2998): 3.02 µM | TGI (HCC 2998): 4.89 µM | CC50 (HCC 2998; [6]): 77.6 µM | GI50 (LOX IMVI): 3.38 µM | LC50 (LOX IMVI): 81.3 µM | TGI (LOX IMVI): 13.2 µM | GI50 (HOP-92): 0.63 µM | TGI (HOP-92): 38 µM | CC50 (HOP-92; [6]): > 100 µM | GI50 (K562): 4.36 µM | TGI (K562): > 100 µM | CC50 (K562; [6]): > 100 µM | GI50 (IGROV-1): 3.46 µM | LC50 (IGROV-1): 55 µM | TGI (IGROV-1): 12.9 µM | GI50 (TK-10): 2.39 µM | TGI (TK-10): 7.08 µM | CC50 (TK-10; [6]): 27.5 µM | GI50 (HCT-15): 2.51 µM | TGI (HCT-15): 6.76 µM | CC50 (HCT-15; [6]): 33.1 µM | GI50 (NCI-H226): 10.7 µM | TGI (NCI-H226): 42.6 µM | CC50 (NCI-H226; [6]): > 100 µM | GI50 (DU-145): 4.26 µM | LC50 (DU-145): 40.7 µM | TGI (DU-145): 16.6 µM | GI50 (SK-MEL-28): 4.46 µM | LC50 (concentration killing 50% of cells) (SK-MEL-28): 74.1 µM | TGI (SK-MEL-28): 19.1 µM | growth at 100 µM (NCI-H460 [4]): 0% | GI50 (NCI-H23): 2.04 µM | TGI (NCI-H23): 5.01 µM | CC50 (NCI-H23; [6]): 26.9 µM | GI50 [5]: 4.89 µM | LC50 (concentration killing 50% of cells) [5]: 75.9 µM | TGI [5]: 19.9 µM
